# Source: patent US6548540B2, “Method of treating cancer using dithiocarbamate derivatives” (Charlotte-Mecklenburg Hospital Authority, priority 1998, dated 2003)
# Tests used:
# [1] = system: Melanoma M1585; assay: MTT proliferation assay, M1585 melanoma; type: cell-based; details: Homo sapiens; M1585 melanoma cells; read-out: 50% inhibitor concentration (IC50)
# Description: (§1) Human malignant cell lines were obtained from American Type Tissue Culture Collection (Rockville, Md.). Melanoma cells lines CRL 1585 and 1619 were cultured in RPMI 1640 (GIBCO-BRL, Life Technologies, Grand Island, N.Y.) with 10% FBS and passed with nonenzymatic Cell Dissociation Solution® (Sigma). The prostate adenocarcinoma cell line CRL 1435 (PC-3) was also cultured in RPMI 1640 with 10% FBS but passed with 0.05% trypsin and 0.53 mM EDTA. The squamous lung carcinoma NCI-H520 and the adenosquamous lung carcinoma NCI-H596 cell lines were grown in RPMI 1640 supplemented with 10% FBS, 10 mM HEPES and 1.0 mM sodium pyruvate and passed with trypsin/EDTA. The small cell lung carcinoma NCI-H82 was cultured as a suspension in RPMI 1640 with 10% FBS. All of the above were grown in a 37° C. humidified environment containing 5% CO2/air. The breast carcinoma cell line MDA-MB-453 was grown in a 37° C. humidified environment with free gas exchange with atmospheric air using Leibovitz's L-15 medium with 2 mM L-glutamine and 10% FBS and was passed with trypsin/EDTA.
# The effect of disulfiram (0.15 to 5.0 μM), diethyldithiocarbamate (DDC, 1.0 μM) or PDTC (0.625 to 5.0 μM) on proliferation of malignant cell lines was studied in cultures stimulated with 10% FBS. Cell numbers were quantitated 24-72 hours later. In some experiments disulfiram or PDTC were added immediately after cells were plated. In other experiments, cells were plated and allowed to grow for 24-72 hours before fresh media with disulfiram or PDTC was added, and cell numbers were assayed 24-72 hours later. Synergy was studied between disulfiram and N,N′-bis(2-chloroethyl-N-nitrosourea (carmustine or BCNU, 1.0 to 1,000 μM) or cisplatin (0.1 to 100 μg/ml) added to medium. The effect of metals on disulfiram was studied with 0.2 to 10 μM copper (provided as CuSO4), zinc (as ZnCl2), silver (as silver lactate) or gold (as HAuCl4.3H2O) ions added to growth medium. No pH changes occurred with addition of metal salts to culture medium. To provide a biologically relevant source of copper, in some experiments medium was supplemented with human ceruloplasmin at doses replicating low and high normal adult serum concentrations (250 and 500 μg/ml).
# Proliferation of cultured cells was quantitated using a previously reported calorimetric method based upon metabolic reduction of the soluble yellow tetrazolium dye 3-[4,5-dimethylthiazol]-2yl-2,5-diphenyl tetrazolium bromide (MTT) to its insoluble purple formazan by the action of mitochondrial succinyl dehydrogenase (See, e.g., S. J. Hirst, et al., “Quantifying proliferation of cultured human and rabbit airway smooth muscle in response to serum and platelet derived growth factor,” Am. J. Respir. Cell Mol. Biol. 7:574-581 (1992); R. Dashtaki, et al. R., supra; S. S. Brar, et al., “Requirement for reactive oxygen species in serum-induced and platelet-derived growth factor-induced growth of airway smooth muscle,” J. Biol. Chem. 274:20017-20026 (1999)). This assay empirically distinguishes between dead and living cells. For proliferation studies, cells were seeded into 24-well uncoated plastic plates (Costar) at 50,000 cells per well and cultured with respective media and mitogens. After 24-96 hours, medium was removed, cells were washed twice with 1 ml of sterile Dulbecco's modified phosphate buffered saline without Ca^2+ or Mg^2+ (DPBS), the medium was replaced with 1 ml/well fresh medium containing 100 μg/ml MTT, and plates were incubated an additional hour. MTT-containing medium was removed, 0.5 ml dimethylsulfoxide (DMSO) was added to each well, and the absorbance of the solubilized purple formazan dye was measured at 540 nm. A total of 4-6 wells were studied at each treatment condition. Preliminary studies were performed with 50-200 μg/ml MTT incubated for 15 minutes to 3 hours to determine the optimum concentration and incubation time at which the rate of conversion was linear and proportional to the number of cells present. […]
# [2] = system: M1619 melanoma cells; assay: MTT proliferation assay, M1619 melanoma; type: cell-based, human; details: for antiproliferative activity of gold complexed with disulfiram: M1619, compared with DS 160 nM
# Description: as §1
# The effect of disulfiram (0.15 to 5.0 μM), diethyldithiocarbamate (DDC, 1.0 μM) or PDTC (0.625 to 5.0 μM) on proliferation of malignant cell lines was studied in cultures stimulated with 10% FBS. Cell numbers were quantitated 24-72 hours later. In some experiments disulfiram or PDTC were added immediately after cells were plated. In other experiments, cells were plated and allowed to grow for 24-72 hours before fresh media with disulfiram or PDTC was added, and cell numbers were assayed 24-72 hours later.
# Finally, a number of dithiocarbamate effects on cells have been attributed to increasing the intracellular levels of copper ions. To further probe the role of copper in mediating cytotoxicity from disulfiram, cells were cultured with or without addition of the impermeate Cu^2+ chelator bathocuprioinedisulfonic acid (BCPS, 100 μM) added to medium to sequester Cu^2+ in the extracellular compartment. Cells were also treated 12 hours with various concentration of disulfiram (0.625 to 5.0 μM) and intracellular copper levels were measured as outlined below.
# Proliferation of cultured cells was quantitated using a previously reported calorimetric method based upon metabolic reduction of the soluble yellow tetrazolium dye 3-[4,5-dimethylthiazol]-2yl-2,5-diphenyl tetrazolium bromide (MTT) to its insoluble purple formazan by the action of mitochondrial succinyl dehydrogenase (See, e.g., S. J. Hirst, et al., “Quantifying proliferation of cultured human and rabbit airway smooth muscle in response to serum and platelet derived growth factor,” Am. J. Respir. Cell Mol. Biol. 7:574-581 (1992); R. Dashtaki, et al. R., supra; S. S. Brar, et al., “Requirement for reactive oxygen species in serum-induced and platelet-derived growth factor-induced growth of airway smooth muscle,” J. Biol. Chem. 274:20017-20026 (1999)). This assay empirically distinguishes between dead and living cells. For proliferation studies, cells were seeded into 24-well uncoated plastic plates (Costar) at 50,000 cells per well and cultured with respective media and mitogens.
# [3] = system: tumor cell lines; assay: Proliferation of tumor cell lines with redox, NO synthase or cyclooxygenase agents (cell line not given); type: cell-based, human
# Description: Potential redox effects of disulfiram were studied in three sets of experiments. The importance of cellular glutathione (GSH) in mediating or modulating thiocarbamate toxicity was studied by measuring levels of intracellular GSH after treatment with disulfiram. […] Also, to assess whether a nonspecific antioxidant effect of disulfiram or PDTC might account for cellular growth inhibition, we studied the effect of the potent lipophilic antioxidant probucol (1.0 to 1,000 μM) on proliferation of malignant cell lines. […] To explore the role of cyclooxygenase inhibition on tumor cell growth, cells were cultured with or without disulfiram in the presence or absence of the cyclooxygenase-1 (COX1) and cyclooxygenase-2 (COX2) inhibitors indomethacin (5μg/ml) or sodium salicylate (1 mM). To probe whether disulfiram might be inducing growth retardation by interruption or stimulation of NO production, proliferation was studied with and without disulfiram in the presence and absence of the nitric oxide […] inhibitor Nω-nitro-L-arginine added to growth medium (100 μM). […] J. Respir. Cell Mol. Biol. 7:574-581 (1992); […], et al. R., supra; S. S. Brar, et al., “Requirement for reactive oxygen species in serum-induced and platelet-derived growth factor-induced growth of airway smooth muscle,” J. Biol. Chem. 274:20017-20026 (1999)). This assay empirically distinguishes between dead and living cells. For proliferation studies, cells were seeded into 24-well uncoated plastic plates (Costar) at 50,000 cells per well and cultured with respective media and mitogens. […] MTT-containing medium was removed, 0.5 ml dimethylsulfoxide (DMSO) was added to each well, and the absorbance of the solubilized purple formazan dye was measured at 540 nm. A total of 4-6 wells were studied at each treatment condition.
molecule,measurement,setting,value
"S=C(S)N1CCCC1 [PDTC, Pyrrolidinedithiocarbamate]",IC50,[1],~1250 nM
"N.N.[Cl][Pt][Cl] [Cisplatin, cisplatin]",A540 of MTT Formazan,"[2]; cisplatin 1 ng/ml + DMSO vehicle, added after 48 hours, additional 24 hours",1.739 ± 0.041
same,A540 of MTT Formazan,"[2]; cisplatin 10 ng/ml + DMSO vehicle, added after 48 hours, additional 24 hours",1.447 ± 0.047
same,A540 of MTT Formazan,"[2]; cisplatin 100 ng/ml + DMSO vehicle, added after 48 hours, additional 24 hours",1.372 ± 0.052
same,A540 of MTT Formazan,"[2]; cisplatin 1,000 ng/ml + DMSO vehicle, added after 48 hours, additional 24 hours",1.381 ± 0.098
"N=C(NCCC[C@H](N)C(=O)O)N[N+](=O)[O-] [LNAME, Nω-nitro-L-arginine]",increase of cellular growth,"[3]; LNAME alone (100 μM), vs DMSO vehicle control",23.7±2.3%
"CCN(CC)C(=S)[S-].O.O.O.[Na+] [NaDDC, sodium diethyldithiocarbamate trihydrate]",antiproliferative activity of the thiolate with DTT in medium,"[2]; NaDDC 1 μM plus DTT 100 μM, 48 hours",reduced by low concentrations of DTT
"Cc1cc(-c2ccc(S(=O)(=O)O)cc2)c2ccc3c(-c4ccc(S(=O)(=O)O)cc4)cc(C)nc3c2n1 [BCPS, bathocuproinedisulfonic acid]",effect of Cu2+ chelator on growth inhibition from disulfiram,"[2]; 1.25 μM disulfiram with 50 or 100 μM BCPS, 48 hr",greatly reduces growth inhibition
CC(C)(Sc1cc(C(C)(C)C)c(O)c(C(C)(C)C)c1)Sc1cc(C(C)(C)C)c(O)c(C(C)(C)C)c1 [probucol],growth of tumor cell lines,"[3]; probucol 1.0 to 1,000 μM, data not shown",did not significantly inhibit growth
[Cl-].[Cl-].[Zn+2] [zinc chloride],effect of zinc on antiproliferative potential of disulfiram,"[2]; ZnCl2 with 0.625 μM disulfiram, grown 24 hours, additional 24 hr",substantially enhanced
dichloro(diethylthiocarbamyl)gold (II) [AuDS],antiproliferative activity of gold complexed with disulfiram,[2]; 48 hr,enhanced antiproliferative activity
same,antiproliferative activity of gold complexed with disulfiram,"[2]; 48 hr, listed as complex of gold with disulfiram",antiproliferative at nM concentrations
O=NN(CCCl)C(=O)NCCCl [Carmustine],A540 of MTT Formazan,"[2]; carmustine 1 μM + DMSO vehicle, 24 hours",0.197 ± 0.004
same,A540 of MTT Formazan,"[2]; carmustine 10 μM + DMSO vehicle, 24 hours",0.152 ± 0.011
same,A540 of MTT Formazan,"[2]; carmustine 100 μM + DMSO vehicle, 24 hours",0.020 ± 0.002
same,A540 of MTT Formazan,"[2]; carmustine 1,000 μM + DMSO vehicle, 24 hours",0.003 ± 0.000
"ceruloplasmin: 132-kD glycoprotein carrying 7 copper atoms, the major copper-carrying protein in human plasma (protein, UniProt P00450 20-1065, looked up) Ceruloplasmin: KEKHYYIGIIETTWDYASDHGEKKLISVDTEHSNIYLQNGPDRIGRLYKKALYLQYTDETFRTTIEKPVWLGFLGPIIKAETGDKVYVHLKNLASRPYTFHSHGITYYKEHEGAIYPDNTTDFQRADDKVYPGEQYTYMLLATEEQSPGEGDGNCVTRIYHSHIDAPKDIASGLIGPLIICKKDSLDKEKEKHIDREFVVMFSVVDENFSWYLEDNIKTYCSEPEKVDKDNEDFQESNRMYSVNGYTFGSLPGLSMCAEDRVKWYLFGMGNEVDVHAAFFHGQALTNKNYRIDTINLFPATLFDAYMVAQNPGEWMLSCQNLNHLKAGLQAFFQVQECNKSSSKDNIRGKHVRHYYIAAEEIIWNYAPSGIDIFTKENLTAPGSDSAVFFEQGTTRIGGSYKKLVYREYTDASFTNRKERGPEEEHLGILGPVIWAEVGDTIRVTFHNKGAYPLSIEPIGVRFNKNNEGTYYSPNYNPQSRSVPPSASHVAPTETFTYEWTVPKEVGPTNADPVCLAKMYYSAVEPTKDIFTGLIGPMKICKKGSLHANGRQKDVDKEFYLFPTVFDENESLLLEDNIRMFTTAPDQVDKEDEDFQESNKMHSMNGFMYGNQPGLTMCKGDSVVWYLFSAGNEADVHGIYFSGNTYLWRGERRDTANLFPQTSLTLHMWPDTEGTFNVECLTTDHYTGGMKQKYTVNQCRRQSEDSTFYLGERTYYIAAVEVEWDYSPQREWEKELHHLQEQNVSNAFLDKGEFYIGSKYKKVVYRQYTDSTFRVPVERKAEEEHLGILGPQLHADVGDKVKIIFKNMATRPYSIHAHGVQTESSTVTPTLPGETLTYVWKIPERSGAGTEDSACIPWAYYSTVDQVKDLYSGLIGPLIVCRRPYLKVFNPRRKLEFALLFLVFDENESWYLDDNIKTYSDHPEKVNKDDEEFIESNKMHAINGRMFGNLQGLTMHVGDEVNWYLMGMGNEIDLHTVHFHGHSFQYKHRGVYSSDVFDIFPGTYQTLEMFPRTPGIWLLHCHVTDHIHAGMETTYTVLQNEDTKSG",effect of ceruloplasmin on antiproliferative activity of disulfiram,"[2]; ceruloplasmin 500 μg/ml with disulfiram, 24 hours",enhance the antiproliferative activity of disulfiram
